Like-named read-outs stand apart in the source and are kept apart here.

For the series the following is noted: rats. The source says:
ALZET® osmotic minipumps are described in Perkins L, Peer C, and Murphy-Hackley P. “Chapter 21: The use of mini-osmotic pumps in continuous infusion studies” in Handbook of Pre-Clinical Continuous Intravenous Infusion, (Smith & Healing, eds., Taylor and Francis, 2000), the contents of which are incorporated herein by reference.
ALZET® pumps groups were weighed on the first and last day of the study. The oral administered groups were weighed on the first day and also on day 6 and 13 of the study.

On to `C#CCN[C@@H]1CCc2ccccc21` [rasagiline, R(+)-N-propargyl-l-aminoindan], for which the weight gain is on record as 1.3% (0.8 mg/kg/day delivered by ALZET pumps, first to last day of two-week study); 6-9% (all oral and ALZET pump groups except 0.8 mg/kg/day by ALZET pumps).
